Among the data in patent US20250214942A1, “INHIBITORS OF RECEPTOR INTERACTING PROTEIN KINASE I FOR THE TREATMENT OF DISEASE” (Board of Regents, The University of Texas System, priority 2019, published 2025) are IC50 values, retold here.

pIC50: −log10 of the molar value. Where two headings read alike, the source gives them in different places.

The term pIC50 denotes the IC50 on a negative log10 scale, so that one unit is a factor of ten.

Assay [1] deals with human monocytic cell line U937. Put plainly: Human U937 cellular necroptosis assay (TNFalpha + z-VAD-FMK, Cell Titer-Glo viability). The conditions noted are these: U937 cells, 25 ng/mL human TNFalpha + 25 μM z-VAD-FMK, read-out: hU937 Avg IC50. The class given is cell-based. The gist of the method: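 Readout is CellTiter-Glo 2.0 luminescence after 22 h at 37° C with compound, in cells triggered by human TNFalpha (25 ng/mL) and z-VAD-FMK (25 μM) in phenol red-free RPMI/10% FBS. Values are run-averaged IC50s from a four-parameter logistic curve.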
(In general: Cellular ATP, detected with luciferase, serves as a proxy for viable cell number.)

The target of another assay is RIPK1 (Homo sapiens (Human), UniProt Q13546). Nature of the assay: ADP-Glo kinase assay (RIPK1 activity, conversion of ATP to ADP). The class given is biochemical. The conditions noted are these: 5 nM RIPK1, 50 μM ATP, 6 h reaction; read-out: RIPK1 Enzyme Avg IC50. The gist of the method: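 RIPK1 (5 nM final) was preincubated 10 min at rt with 1:3-diluted compounds in HEPES pH 7.5/MgCl2/DTT/BSA/CHAPS buffer. ATP (50 μM final) was then added for 6 h, and ADP formed was read by ADP-Glo luminescence. IC50 values came from four-parameter logistic fitting.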
Chain of RIPK1 (Q13546 1-327): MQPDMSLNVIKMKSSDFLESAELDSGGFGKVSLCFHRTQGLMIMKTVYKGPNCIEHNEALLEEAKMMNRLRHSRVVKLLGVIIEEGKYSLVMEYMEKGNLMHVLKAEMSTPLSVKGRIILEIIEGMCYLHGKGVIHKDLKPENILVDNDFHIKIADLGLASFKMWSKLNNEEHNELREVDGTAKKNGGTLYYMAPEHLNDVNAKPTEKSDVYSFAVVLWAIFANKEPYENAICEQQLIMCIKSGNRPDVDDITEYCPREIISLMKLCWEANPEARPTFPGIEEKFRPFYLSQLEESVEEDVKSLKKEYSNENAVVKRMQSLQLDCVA

For the compound `N#CC1CCN(CC23CC(C(=O)N4N=CCC4c4cc(F)cc(F)c4)(C2)C3)C1` (centres unmarked) [Example 155, 1-((3-(5-(3,5-difluorophenyl)-4,5-dihydro-1H-pyrazole-1-carbonyl)bicyclo[1.1.1]-pentan-1-yl)methyl)-pyrrolidine-3-carbonitrile], the pIC50 in assay [1] (Homo sapiens, U-937, 22 h) was 5.28; at RIPK1, 6.09.

As for `COc1cnn(CC23CC(C(=O)N4N=CCC4c4cc(F)cc(F)c4)(C2)C3)c1` (centres unmarked) [Example 160, (5-(3,5-difluorophenyl)-4,5-dihydro-1H-pyrazol-1-yl)(3-((4-methoxy-1H-pyrazol-1-yl)methyl)bicyclo[1.1.1]-pentan-1-yl)methanone], the pIC50 in assay [1] (Homo sapiens, U-937, 22 h) was 6.39; at RIPK1 it was 7.09.

As for `O=C(N1N=CCC1c1cc(F)cc(F)c1)C12CC(Cn3ncc4nccnc43)(C1)C2` (centres unmarked) [Example 135, (3-((1H-pyrazolo[3,4-b]-pyrazin-1-yl)methyl)-bicyclo[1.1.1]pentan-1-yl)(5-(3,5-difluorophenyl)-4,5-dihydro-1H-pyrazol-1-yl)methanone], the pIC50 is 7.28 in assay [1] (Homo sapiens, U-937, 22 h) and 7.74 on RIPK1.

With `Cc1cnc(C2CC=NN2C(=O)C23CC(Cn4ncc5ncccc54)(C2)C3)cn1` (centres unmarked) [Example 151, (3-((1H-pyrazolo[4,3-b]-pyridin-1-yl)methyl)bicyclo-[1.1.1]pentan-1-yl)(5-(5-methylpyrazin-2-yl)-4,5-dihydro-1H-pyrazol-1-yl)methanone], the negative logarithm of the IC50 (pIC50) in assay [1] (Homo sapiens, U-937, 22 h) is 5.92; on RIPK1, 6.62.

As for `O=C(N1N=CCC1c1cc(F)cc(F)c1)C12CC(Cn3ncc4ncccc43)(C1)C2` (centres unmarked) [Example 65, (3-((1H-pyrazolo[4,3-b]-pyridin-1-yl)methyl)bicyclo-[1.1.1]pentan-1-yl)(5-(3,5-difluorophenyl)-4,5-dihydro-1H-pyrazol-1-yl)methanone], the pIC50 in assay [1] (22 h) was 7.36; at RIPK1, 7.96.

Consider `N#Cc1cnn2ccn(CC34CC(C(=O)N5N=CCC5c5cc(F)cc(F)c5)(C3)C4)c12` (centres unmarked) [Example 146, 1-((3-(5-(3,5-difluorophenyl)-4,5-dihydro-1H-pyrazole-1-carbonyl)bicyclo[1.1.1]-pentan-1-yl)methyl)-1H-imidazo[1,2-b]pyrazole-7-carbonitrile], for which the pIC50 in assay [1] (Homo sapiens, U-937, 22 h) was 5.72; on RIPK1 it was 6.49.

Take `N#Cc1cccc(OCC23CC(C(=O)N4CC(F)CC4c4cccc(F)c4)(C2)C3)n1` (centres unmarked) [Example 94, 6-((3-(4-fluoro-2-(3-fluoro-phenyl)pyrrolidine-1-carbonyl)bicyclo[1.1.1]-pentan-1-yl)methoxy)-picolinonitrile]: the pIC50 is 6.00 in assay [1] (Homo sapiens, U-937, 22 h) and 6.96 on RIPK1.

Take `N#Cc1cnc(OCC23CC(C(=O)N4N=CCC4c4cc(F)cc(F)c4)(C2)C3)cn1` (centres unmarked) [Example 199, 5-((3-(5-(3,5-difluorophenyl)-4,5-dihydro-1H-pyrazole-1-carbonyl)bicyclo[1.1.1]pentan-1-yl)methoxy)pyrazine-2-carbonitrile]: the pIC50 was 8.03 in assay [1] (Homo sapiens, U-937, 22 h) and 8.08 on RIPK1.

As for `Cc1cn(CC23CC(C(=O)N4N=CCC4c4cc(F)cc(F)c4)(C2)C3)nc1C#N` (centres unmarked) [Example 157, 1-((3-(5-(3,5-difluorophenyl)-4,5-dihydro-1H-pyrazole-1-carbonyl)bicyclo[1.1.1]-pentan-1-yl)methyl)-4-methyl-1H-pyrazole-3-carbonitrile], the pIC50 in assay [1] (Homo sapiens, U-937, 22 h) is 6.77; on RIPK1, 7.38.

`NC(=O)c1cc(OCC23CC(C(=O)N4N=CCC4c4cc(F)cc(F)c4)(C2)C3)ncn1` (centres unmarked) [Example 8, 6-((3-(5-(3,5-Difluorophenyl)-4,5-dihydro-1H-pyrazole-1-carbonyl)bicyclo[1.1.1]pentan-1-yl)methoxy)pyrimidine-4-carboxamide]: the pIC50 in assay [1] (Homo sapiens, U-937, 22 h) is 7.29; on RIPK1 it was 7.55.

With `O=C(N1CC(F)CC1c1cccc(F)c1)C12CC(Cn3cc4cc(F)ccc4n3)(C1)C2` (centres unmarked) [Example 106, (4-fluoro-2-(3-fluorophenyl)-pyrrolidin-1-yl)(3-((5-fluoro-2H-indazol-2-yl)methyl)-bicyclo[1.1.1]pentan-1-yl)methanone], the pIC50 in assay [1] (Homo sapiens, U-937, 22 h) was 5.83; at RIPK1, 6.43.

For the compound `N#Cc1cccc(C2CC=NN2C(=O)C23CC(Cn4ncc5c(F)cccc54)(C2)C3)c1` (centres unmarked) [Example 82, 3-(1-(3-((4-fluoro-1H-indazol-1-yl)methyl)bicyclo-[1.1.1]pentane-1-carbonyl)-4,5-dihydro-1H-pyrazol-5-yl)benzonitrile], the pIC50 in assay [1] (Homo sapiens, U-937, 22 h) is 7.51; on RIPK1 it was 7.96.

For the compound `N#Cc1cc(OCC23CC(C(=O)N4N=CCC4c4cncc(F)c4)(C2)C3)ncn1` (centres unmarked) [Example 126, 6-((3-(5-(5-fluoropyridin-3-yl)-4,5-dihydro-1H-pyrazole-1-carbonyl)bicyclo[1.1.1]-pentan-1-yl)-methoxy)pyrimidine-4-carbonitrile], the pIC50 in assay [1] (Homo sapiens, U-937, 22 h) is 6.36; at RIPK1, 7.31.

For the compound `N#Cc1ccc2c(cnn2CC23CC(C(=O)N4CCC4c4ccccc4)(C2)C3)c1` (centres unmarked) [Example 177, 1-((3-(2-phenylazetidine-1-carbonyl)bicyclo[1.1.1]-pentan-1-yl)methyl)-1H-indazole-5-carbonitrile], the pIC50 in assay [1] (Homo sapiens, U-937, 22 h) is 6.27; on RIPK1 it was 7.27.

With `N#Cc1ccc2cn(CC34CC(C(=O)N5N=CCC5c5cc(F)cc(F)c5)(C3)C4)nc2c1` (centres unmarked) [Example 56, 2-((3-(5-(3,5-difluorophenyl)-4,5-dihydro-1H-pyrazole-1-carbonyl)bicyclo[1.1.1]-pentan-1-yl)methyl)-2H-indazole-6-carbonitrile], the pIC50 in assay [1] (Homo sapiens, U-937, 22 h) was 7.20; on RIPK1, 7.72.

Take `O=C(N1CC(F)CC1c1cccc(F)c1)C12CC(COc3nccc(Cl)n3)(C1)C2` (centres unmarked) [Example 101, (3-(((4-chloropyrimidin-2-yl)oxy)methyl)bicyclo[1.1.1]-pentan-1-yl)(4-fluoro-2-(3-fluorophenyl)pyrrolidin-1-yl)methanone]: the pIC50 in assay [1] (Homo sapiens, U-937, 22 h) was 5.87; at RIPK1 it was 6.31.

Consider `O=C(N1CC(F)CC1c1cccc(F)c1)C12CC(COc3cc(Br)ncn3)(C1)C2` (centres unmarked) [Example 28, (3-(((6-Bromopyrimidin-4-yl)oxy)methyl)bicyclo[1.1.1]pentan-1-yl)(4-fluoro-2-(3-fluorophenyl)pyrrolidin-1-yl)methanone], for which the pIC50 in assay [1] (Homo sapiens, U-937, 22 h) is 6.71; on RIPK1, 7.49.

Take `Cc1cnc(C2CC=NN2C(=O)C23CC(Cn4ncc5cc(C#N)ccc54)(C2)C3)cn1` (centres unmarked) [Example 49, 1-((3-(5-(5-Methylpyrazin-2-yl)-4,5-dihydro-1H-pyrazole-1-carbonyl)-bicyclo[1.1.1]pentan-1-yl)methyl)-1H-indazole-5-carbonitrile]: the pIC50 in assay [1] (Homo sapiens, U-937, 22 h) was 7.17; at RIPK1 it was 7.66.

In the case of `O=C(N1CC(F)CC1c1cccc(F)c1)C12CC(Cn3ncc4c(F)cccc43)(C1)C2` (centres unmarked) [Example 83, (3-((4-fluoro-1H-indazol-1-yl)methyl)bicyclo[1.1.1]-pentan-1-yl)(4-fluoro-2-(3-fluorophenyl)pyrrolidin-1-yl)methanone], the pIC50 in assay [1] (Homo sapiens, U-937, 22 h) was 7.17; on RIPK1, 7.80.

`O=C(N1N=CCC1c1cc(F)cc(F)c1)C12CC(Cn3cc4ccncc4n3)(C1)C2` (centres unmarked) [Example 88, (3-((2H-pyrazolo[3,4-c]-pyridin-2-yl)methyl)bicyclo-[1.1.1]pentan-1-yl)(5-(3,5-difluorophenyl)-4,5-dihydro-1H-pyrazol-1-yl)methanone]: the pIC50 in assay [1] (Homo sapiens, U-937, 22 h) is 7.03; on RIPK1, 7.62.

Consider `O=C(N1N=CCC1c1cc(F)cc(F)c1)C12CC(CF)(C1)C2` (centres unmarked) [Example 5, (5-(3,5-Difluorophenyl)-4,5-dihydro-1H-pyrazol-1-yl)(3-(fluoromethyl)-bicyclo[1.1.1]pentan-1-yl)methanone], for which the pIC50 in assay [1] (Homo sapiens, U-937, 22 h) is 7.70; on RIPK1, 7.77.

Regarding `O=C(N1N=CCC1c1cc(F)cc(F)c1)C12CC(Cn3cc4ncccc4n3)(C1)C2` (centres unmarked) [Example 59, (3-((2H-pyrazolo[4,3-b]-pyridin-2-yl)methyl)bicyclo-[1.1.1]pentan-1-yl)(5-(3,5-difluorophenyl)-4,5-dihydro-1H-pyrazol-1-yl)methanone], the pIC50 in assay [1] (Homo sapiens, U-937, 22 h) was 6.65; at RIPK1, 7.37.

Take `NC(=O)c1cnnn1CC12CC(C(=O)N3N=CCC3c3cc(F)cc(F)c3)(C1)C2` (centres unmarked) [Example 55, 1-((3-(5-(3,5-difluorophenyl)-4,5-dihydro-1H-pyrazole-1-carbonyl)-bicyclo[1.1.1]pentan-1-yl)methyl)-1H-1,2,3-triazole-5-carboxamide]: the pIC50 in assay [1] (Homo sapiens, U-937, 22 h) was 5.05; on RIPK1 it was 6.05.

For `N#Cc1cccc2c1cnn2CC12CC(C(=O)N3N=CCC3c3cc(F)cc(F)c3)(C1)C2` (centres unmarked) [Example 67, 1-((3-(5-(3,5-difluorophenyl)-4,5-dihydro-1H-pyrazole-1-carbonyl)bicyclo[1.1.1]-pentan-1-yl)methyl)-1H-indazole-4-carbonitrile], the pIC50 in assay [1] (Homo sapiens, U-937, 22 h) was 7.27; on RIPK1, 7.72.

For `O=C(N1N=CCC1c1cc(F)cc(F)c1)C12CC(Cn3c(=O)[nH]c4ccccc43)(C1)C2` (centres unmarked) [Example 109, 1-((3-(5-(3,5-difluorophenyl)-4.5-dihydro-1H-pyrazole-1-carbonyl)bicyclo[1.1.1]-pentan-1-yl)methyl)-1,3-dihydro-2H-benzo[d]-imidazol-2-one], the negative logarithm of the IC50 (pIC50) in assay [1] (Homo sapiens, U-937, 22 h) is 6.33; at RIPK1, 7.38.
